Entries after “also recorded” stand apart in the source; their conditions may differ.
Columns and labels:
[1] = tested on: hematopoietic stem and progenitor cells (HSPC); assay: Reactive oxygen species (DCFDA staining, FACS) in mouse bone marrow cells; type: cell-based
Method: (§1) Bone marrow cells were extracted from the mouse tibia and femur and treated with 6.2 μM of 27-hydroxycholesterol for 48 hours. In order to confirm apoptosis, the cells treated with 27-hydroxycholesterol were collected, the cells were dissolved in a 1× Annexin binding buffer, added with Annexin V and 7AAD, and analyzed using FACScanto2 equipment, and in order to confirm reactive oxygen species, the cells were dissolved in an FACS staining buffer, added with DCFDA, stained at 37° C. for 30 minutes, and analyzed using FACScanto2 equipment. As a result, an effect of 27-hydroxycholesterol on increased apoptosis and reactive oxygen species (ROS) in hematopoietic stem and progenitor cells (HSPC) was confirmed and illustrated in FIG. 2 [Con or Ctrl: mouse bone marrow cells untreated, Chol: mouse bone marrow cells treated with cholesterol, 27HC: mouse bone marrow cells treated with 27-hydroxycholesterol].

[2] = tested on: hematopoietic stem and progenitor cells (HSPC); type: cell-based, mouse
Method: The bone marrow was extracted from the mouse tibia and femur using an FACS staining buffer (phosphate-buffered saline, 2% FBS, penicillin/streptomycin), and then bone marrow cells were extracted by lysing red blood cells using an ACK lysis buffer and treated with 0.62 μM or 6.2 μM 27-hydroxycholesterol for 24 or 48 hours. After treatment, antibodies were attached and the cells were analyzed using FACSCanto2 equipment. As a result, the effect of 27-hydroxycholesterol on decreased hematopoietic stem and progenitor cells (HSPC) was confirmed, and illustrated in FIGS. 1 and 11 [Con: untreated mouse bone marrow cells, Chol: mouse bone marrow cells treated with cholesterol, 27HC: mouse bone marrow cells treated with 27-hydroxycholesterol].

[3] = tested on: myeloid leukemia cells (HL60, KG1a, and K562 cells); assay: Leukemia cell count by trypan blue; type: cell-based; conditions: 6.2 μM, 48 hours; negative control HEK293T cells
Method: (§2) Acute myeloid leukemia cell lines HL60 and KG1 α, and chronic myeloid leukemia cell line, K562 cells were treated with 6.2 μM of 27-hydroxycholesterol for 48 hours and then strained with trypan blue, and then the cell count was confirmed. In addition, the cells were added with Annexin V and 7AAD, and the apoptosis was analyzed using FACScanto2 equipment. As a result, it was confirmed that compared to untreated cells (Con) and a cholesterol-treated leukemia cell line (Chol), 27-hydroxycholesterol increased the apoptosis in a leukemia cell line (27HC) to reduce the number of cells, which was illustrated in FIG. 3 [Con: untreated leukemia cell line, Chol: leukemia cell line treated with cholesterol, 27HC: leukemia cell line treated with 27-hydroxycholesterol].

[4] = tested on: hematopoietic stem and progenitor cells (HSPC); assay: Apoptosis (Annexin V / 7AAD, FACS) in mouse bone marrow cells; type: cell-based; conditions: 6.2 μM, 48 hours, compared to control cells
Method: as §1

[5] = tested on: HL60 cells and K562 cells; assay: Leukemia cell growth comparison, cell count by trypan blue; type: cell-based; conditions: 6.2 μM, 48 hours; for number of cells in leukemia cell lines: HL60 and K562
Method: An acute myeloid leukemia cell line HL60, and a chronic myeloid leukemia cell line, K562 cells were treated with 6.2 μM of cholesterol, 7α-hydroxycholesterol, and 27-hydroxycholesterol for 48 hours and then strained with trypan blue, and then the cell count was confirmed.

[6] = tested on: myeloid leukemia cells (HL60, KG1a, K562 cells); assay: Apoptosis (Annexin V / 7AAD, FACS) in leukemia cell lines; type: cell-based; conditions: 6.2 μM, 48 hours, compared to control cells
Method: as §2

hematopoietic stem cells = assay: Bone marrow transplantation of ex vivo treated donor CD45.1 bone marrow cells; type: in vivo, mouse
Method: Bone marrow cells were taken out ex vivo, treated with 6.2 μM of 27-hydroxycholesterol (27-HC), and then subjected to bone marrow transplantation.
Specifically, referring to FIG. 9A, BM cells were extracted from the tibia and femur of a donor CD45.1 mouse, and then treated with vehicle, 6.2 μM cholesterol, and 6.2 μM 27-hydroxycholesterol for 48 hours. Then, bone marrow transplantation was performed by mixing the bone marrow cells of the CD45.2 mouse in a 1:1 ratio and injecting the mixture into the caudal vein of a recipient CD45.2 mouse that had been irradiated with 4 Gy. One month later, blood was extracted from the veins of the recipient mouse that had received bone marrow transplantation, and the cell proportion of the donor mouse was analyzed. Blood was extracted from the mouse jugular vein and added in 10 mM EDTA to prevent blood coagulation, and added in an ACK lysis buffer to lyse red blood cells. It was confirmed that after attaching CD45.1-APC and CD45.2-FITC antibodies, donor mouse CD45.1 cells were analyzed using FACSCanto2 equipment, and 27-hydroxycholesterol suppressed the regeneration and proliferation of hematopoietic stem cells, as illustrated FIGS. 9A to 9E.

[7] = tested on: myeloid leukemia cells (HL60, KG1a, K562 cells); assay: Differentiation marker CD11b staining in leukemia cell lines; type: cell-based; conditions: compared to control cells
Method: (§3) Next, the apoptosis and the ROS proportions were analyzed through DCFDA staining. In addition, to confirm the effect of 27-Hydroxycholesterol on the differentiation of leukemia cell lines, a differentiation marker, CD11b was stained and analyzed using FACScanto 2 equipment. As a result, it was confirmed that the ROS proportion was high in the leukemia cell line treated with 27-hydroxycholesterol, which was illustrated in FIG. 4 [Con: untreated leukemia cell line, Chol: leukemia cell line treated with cholesterol, 27HC: leukemia cell line treated with 27-hydroxycholesterol].

[8] = tested on: ER stress response pathway; assay: Western blot of ER stress proteins (pIRE1α, IRE1α, PERK, ATF4, elF2α); type: cell-based
[9] = tested on: myeloid leukemia cells (HL60, KG1a, K562 cells); assay: ROS (DCFDA staining) in leukemia cell lines; type: cell-based; conditions: compared to control cells
Method: as §3

[10] = tested on: LKS cells and hematopoietic progenitor cells (HPC); assay: qRT-PCR gene expression in sorted LKS cells and hematopoietic progenitor cells; type: cell-based, mouse; conditions: 6.2 μM, 48 hours
Method: Bone marrow cells were extracted from the mouse tibia and femur and treated with 6.2 μM of 27-hydroxycholesterol for 48 hours. After treatment, the cells were added with PE-Cy5-CD3, PE-Cy5-CD4, PE-Cy5-CD8, PE-Cy5-CD19, PE-Cy5-B220, PE-Cy5-GR1, PE-Cy5-Ter119, PE-Sca1, APC-Add cKit, PE-Cy7-CD150, and APC-Cy7-CD48 antibodies, stained for 30 minutes at 4° C., and then LKS (Lin-Sca1^+cKit^+) and hematopoietic progenitor cells (Lin^−Sca1^+cKit^+CD48^+) were separated using FACSAria. Thereafter, RNA was extracted from the cells using an RNA extraction kit, and cDNA was synthesized from RNA using a cDNA synthesis kit. The synthesized cDNA was subjected to qRT-PCR using primers related to apoptosis and ER stress and SYBR-green. As a result, it was confirmed that gene expression related to apoptosis and ER stress was increased according to treatment of 27-hydroxycholesterol in LKS and hematopoietic progenitor cells, which were immature cells, compared to total bone marrow cells, as illustrated in FIG. 6.

CC(=O)N[C@@H](CS)C(=O)O [N-acetylcysteine, reference compound]
ROS in LKS cells, HPC and HSC treated with 27-hydroxycholesterol, on treating NAC ([1]; 27-hydroxycholesterol plus antioxidant NAC, FIG. 2E): increased
decreased proportions of LKS cells, HPC and HSC by 27-hydroxycholesterol, on treating NAC ([2]; 27-hydroxycholesterol plus antioxidant NAC, FIG. 2F): suppressed

C[C@@H](CO)CCC[C@@H](C)[C@H]1CC[C@H]2[C@@H]3CC=C4C[C@@H](O)CC[C@]4(C)[C@H]3CC[C@]12C [27-hydroxycholesterol]
number of myeloid leukemia cells (cell count) [3]: reduce; also recorded: significantly decreased
apoptosis in LKS cells, HPC and HSC [4]: increased
ROS in LKS cells, HPC and HSC ([1]; 6.2 μM, 48 hours, compared to control cells): increased
growth of leukemia cells (HL60 cells and K562 cells) ([5]; FIG. 8A/8B): inhibited; also recorded: minimal; also recorded: suppressed
number of cells in leukemia cell lines [5]: decreased
apoptosis of myeloid leukemia cells [6]: increased
proportions of donor monocytes, B cells and T cells in blood of recipient mouse (hematopoietic stem cells; 6.2 μM, 48 hours ex vivo, after transplantation, FIG. 9C): decreased
engraftment ability (donor CD45.1 cells) in bone marrow cells (hematopoietic stem cells; 6.2 μM, 48 hours ex vivo, after transplantation, FIG. 9D): decreased
proportions of donor LK cells, LKS cells, HPC and HSC in bone marrow cells of recipient mouse (hematopoietic stem cells; 6.2 μM, 48 hours ex vivo, after transplantation, FIG. 9E): decreased
engraftment ability (donor CD45.1 cells) in blood (hematopoietic stem cells; 6.2 μM, 48 hours ex vivo, one month after transplantation, FIG. 9B): decreased
regeneration and proliferation of hematopoietic stem cells (hematopoietic stem cells; donor BM cells treated ex vivo with 6.2 μM for 48 hours, then transplanted): suppressed
differentiation (CD11b+) of myeloid leukemia cells [7]: increased
ER stress (amount of ER stress protein) ([8]; HL60 cells, 48 hours): increased
ER stress response pathway ([8]; THP1 cells, FIG. 5A): increases
cytotoxic effect (conclusion of Example 1) [2]: cytotoxic effect specifically on hematopoietic stem and progenitor cells
effect on LK, LKS, HPC, HSC, monocytes, neutrophils, B cells, T cells ([2]; 0.62 μM, 24 hours, FIG. 11B): no effect on all cells
number of LK cells, LKS cells, HPC and HSC ([2]; BM cells treated for 24 hours or 48 hours, FIG. 11A): decreased
proportions of LKS cells, hematopoietic progenitor cells and hematopoietic stem cells ([2]; BM cells treated with 27-hydroxycholesterol, FIG. 1A/1B): decreased
proportions of common myeloid, granulocytic macrophage, megakaryocytic erythroid and common lymphocytic progenitor cells ([2]; BM cells, FIG. 1C/1D): decreased
proportions of monocytes, neutrophils, B cells and T cells ([2]; BM cells, FIG. 1E/1F): no change
proportions of LKS cells, HPC and HSC ([2]; Example 2, 6.2 μM, 48 hours, compared to control cells, FIG. 2F): decreased
cKit+ cells and CD48+ cells ([2]; FIG. 11C): reduces
ROS proportion of myeloid leukemia cells [9]: increased and high
gene expression related to apoptosis and ER stress ([10]; LKS and HPC compared to total bone marrow cells): increased
expression of Bax gene related to apoptosis ([10]; LKS cells and HPC): increased
expression of Chop, Ire1α and Xbp1s genes related to ER stress ([10]; LKS cells and HPC): increased
expression of Era gene related to cancer cell growth ([10]; LKS cells and HPC): increased

CC(C)CCC[C@@H](C)[C@H]1CC[C@H]2[C@@H]3[C@H](O)C=C4C[C@@H](O)CC[C@]4(C)[C@H]3CC[C@]12C [7α-hydroxycholesterol, reference compound]
effect on chronic myeloid leukemia cells [5]: no effect
number of cells in leukemia cell lines [5]: did not have a significant effect
effect on acute myeloid leukemia cell lines ([5]; relative to 27-hydroxycholesterol): weaker effect
